Tested on: 4 PI3K isoforms (Human recombinant GST-PI3K)
Experiment: PI3K scintillation proximity assay, best IC50 obtained with the four isoforms (alpha, beta, delta, gamma)
Format: biochemical
Conditions: best IC50 obtained with the four isoforms of PI3K; read-out: Best potency measured on the 4 PI3K isoforms

Row | IC50 [nM] | SMILES
1 | 48 | O=C(c1nn(C2CCCN(c3cccnc3)C2)c2c1CS(=O)(=O)c1ccccc1-2)N1CCOCC1 (single isomer, unassigned) [Example 484, 3-(morpholin-4-ylcarbonyl)-1-[1-pyridin-3-ylpiperidin-3-yl]-1,4-dihydrothiochromeno[4,3-c]pyrazole 5,5-dioxide]
2 | 25 | O=C(c1nn([C@H]2CCCN(CC3CCOCC3)C2)c2c1CS(=O)(=O)c1ccccc1-2)N1CCOCC1 (stereo in doubt) [Example 361, 3-(morpholin-4-ylcarbonyl)-1-[1-(tetrahydro-2H-pyran-4-ylmethyl)piperidin-3-yl]-1,4-dihydrothiochromeno[4,3-c]pyrazole 5,5-dioxide]
3 | 80 | O=C(c1nn([C@H]2CCCN(C3CCOCC3)C2)c2c1CS(=O)(=O)c1ccccc1-2)N1CCOCC1 (stereo in doubt) [Example 374, 3-(morpholin-4-ylcarbonyl)-1-[1-(tetrahydro-2H-pyran-4-yl)piperidin-3-yl]-1,4-dihydrothiochromeno[4,3-c]pyrazole 5,5-dioxide]
4 | 24 | COc1ccc2c(c1)S(=O)(=O)Cc1c(C(=O)N3CCOCC3)nn([C@H]3CCCN(C4CCCOC4)C3)c1-2 (stereo in doubt) [Example 389, 7-methoxy-3-(morpholin-4-ylcarbonyl)-1-[1-(tetrahydro-2H-pyran-3-yl)piperidin-3-yl]-1,4-dihydrothiochromeno[4,3-c]pyrazole 5,5-dioxide]
5 | 44 | COc1ccc2c(c1)S(=O)(=O)Cc1c(C(=O)N3CCOCC3)nn([C@H]3CCCN(CC4CCOC4)C3)c1-2 (stereo in doubt) [Example 395, 7-methoxy-3-(morpholin-4-ylcarbonyl)-1-[1-(tetrahydrofuran-3-ylmethyl)piperidin-3-yl]-1,4-dihydrothiochromeno[4,3-c]pyrazole 5,5-dioxide]
6 | 25 | O=C(c1nn([C@H]2CCCN(C3CCCOC3)C2)c2c1CS(=O)(=O)c1c(F)cccc1-2)N1CCOCC1 (stereo in doubt) [Example 425, 6-Fluoro-3-(morpholin-4-ylcarbonyl)-1-[1-(tetrahydro-2H-pyran-3-yl)piperidin-3-yl]-1,4-dihydrothiochromeno[4,3-c]pyrazole 5,5-dioxide]
7 | 13 | O=C(c1nn([C@H]2CCCN(C3CCOCC3)C2)c2c1CS(=O)(=O)c1c(F)cccc1-2)N1CCOCC1 (stereo in doubt) [Example 427, 6-fluoro-3-(morpholin-4-ylcarbonyl)-1-[1-(tetrahydro-2H-pyran-4-yl)piperidin-3-yl]-1,4-dihydrothiochromeno[4,3-c]pyrazole 5,5-dioxide]
8 | 39 | O=C(CCN1CCC[C@H](n2nc(C(=O)N3CCOCC3)c3c2-c2ccccc2S(=O)(=O)C3)C1)N1CC(F)(F)C1 (stereo in doubt) [Example 429, 1-{1-[3-(3,3-difluoroazetidin-1-yl)-3-oxopropyl]piperidin-3-yl}-3-(morpholin-4-ylcarbonyl)-1,4-dihydrothiochromeno[4,3-c]pyrazole 5,5-dioxide]
9 | 45 | COCCN(C)CCN1CCC[C@H](n2nc(C(=O)N3CCOCC3)c3c2-c2ccccc2S(=O)(=O)C3)C1 (stereo in doubt) [Example 438, 2-methoxy-N-methyl-N-(2-{3-[3-(morpholin-4-ylcarbonyl)-5,5-dioxidothiochromeno[4,3-c]pyrazol-1(4H)-yl]piperidin-1-yl}ethyl)ethanamine]
10 | 25 | COC1CCN(CCN2CCC[C@H](n3nc(C(=O)N4CCOCC4)c4c3-c3ccccc3S(=O)(=O)C4)C2)C1 (stereo in doubt) [Example 439, 1-{1-[2-(3-methoxypyrrolidin-1-yl)ethyl]piperidin-3-yl}-3-(morpholin-4-ylcarbonyl)-1,4-dihydrothiochromeno[4,3-c]pyrazole 5,5-dioxide]
11 | 41 | O=C(CCN1CCC[C@H](n2nc(C(=O)N3CCOCC3)c3c2-c2ccccc2S(=O)(=O)C3)C1)N1CCC(F)(F)C1 (stereo in doubt) [Example 441, 1-{1-[3-(3,3-difluoropyrrolidin-1-yl)-3-oxopropyl]piperidin-3-yl}-3-(morpholin-4-ylcarbonyl)-1,4-dihydrothiochromeno[4,3-c]pyrazole 5,5-dioxide]
12 | 105 | CC(=O)NCCN1CCC[C@H](n2nc(C(=O)N3CCOCC3)c3c2-c2ccccc2S(=O)(=O)C3)C1 (stereo in doubt) [Example 444, N-(2-{3-[3-(morpholin-4-ylcarbonyl)-5,5-dioxidothiochromeno[4,3-c]pyrazol-1(4H)-yl]piperidin-1-yl}ethyl)acetamide]
13 | 34 | COCCNCCN1CCC[C@H](n2nc(C(=O)N3CCOCC3)c3c2-c2ccccc2S(=O)(=O)C3)C1 (stereo in doubt) [Example 445, 2-methoxy-N-(2-{3-[3-(morpholin-4-ylcarbonyl)-5,5-dioxidothiochromeno[4,3-c]pyrazol-1(4H)-yl]piperidin-1-yl}ethyl)ethanamine]
14 | 20 | COC1CN(CCN2CCC[C@H](n3nc(C(=O)N4CCOCC4)c4c3-c3ccccc3S(=O)(=O)C4)C2)C1 (stereo in doubt) [Example 446, 1-{1-[2-(3-methoxyazetidin-1-yl)ethyl]piperidin-3-yl}-3-(morpholin-4-ylcarbonyl)-1,4-dihydrothiochromeno[4,3-c]pyrazole 5,5-dioxide]
15 | 261 | COCC(=O)N1CCC[C@H](n2nc(C(=O)N3CCOCC3)c3c2-c2ccccc2S(=O)(=O)C3)C1 (stereo in doubt) [Example 447, 1-[1-(methoxyacetyl)piperidin-3-yl]-3-(morpholin-4-ylcarbonyl)-1,4-dihydrothiochromeno[4,3-c]pyrazole 5,5-dioxide]
16 | 113 | COCCN(CCOC)CCN1CCC[C@H](n2nc(C(=O)N3CCOCC3)c3c2-c2ccccc2S(=O)(=O)C3)C1 (stereo in doubt) [Example 448, 2-methoxy-N-(2-methoxyethyl)-N-(2-{3-[3-(morpholin-4-ylcarbonyl)-5,5-dioxidothiochromeno[4,3-c]pyrazol-1(4H)-yl]piperidin-1-yl}ethyl)ethanamine]
17 | 7 | O=C(c1nn([C@H]2CCCN(CCN3CCCC3)C2)c2c1CS(=O)(=O)c1ccccc1-2)N1CCOCC1 (stereo in doubt) [Example 450, 3-(morpholin-4-ylcarbonyl)-1-[1-(2-pyrrolidin-1-ylethyl)piperidin-3-yl]-1,4-dihydrothiochromeno[4,3-c]pyrazole 5,5-dioxide]
18 | 28 | CN1CCC(N2CCC[C@H](n3nc(C(=O)N4CCOCC4)c4c3-c3ccccc3S(=O)(=O)C4)C2)CC1 (stereo in doubt) [Example 451, 1-[1′-methyl-1,4′-bipiperidin-3-yl]-3-(morpholin-4-ylcarbonyl)-1,4-dihydrothiochromeno[4,3-c]pyrazole 5,5-dioxide]
19 | 18 | CN1CCCC(N2CCC[C@H](n3nc(C(=O)N4CCOCC4)c4c3-c3ccccc3S(=O)(=O)C4)C2)C1 (stereo in doubt) [Example 459, 1-[1′-methyl-1,3′-bipiperidin-3-yl]-3-(morpholin-4-ylcarbonyl)-1,4-dihydrothiochromeno[4,3-c]pyrazole 5,5-dioxide]
20 | 21 | COC1CCN(CCN2CCC[C@H](n3nc(C(=O)N4CCOCC4)c4c3-c3ccccc3S(=O)(=O)C4)C2)CC1 (stereo in doubt) [Example 460, 1-{1-[2-(4-methoxypiperidin-1-yl)ethyl]piperidin-3-yl}-3-(morpholin-4-ylcarbonyl)-1,4-dihydrothiochromeno[4,3-c]pyrazole 5,5-dioxide]
21 | 18 | O=C(c1nn([C@H]2CCCN(CCN3CCC(O)CC3)C2)c2c1CS(=O)(=O)c1ccccc1-2)N1CCOCC1 (stereo in doubt) [Example 463, 1-(2-{3-[3-(morpholin-4-ylcarbonyl)-5,5-dioxidothiochromeno[4,3-c]pyrazol-1(4H)-yl]piperidin-1-yl}ethyl)piperidin-4-ol]
22 | 22 | O=C(c1nn([C@H]2CCCN(CCN3CC(F)(F)C3)C2)c2c1CS(=O)(=O)c1c(F)cccc1-2)N1CCOCC1 (stereo in doubt) [Example 464, 1-{1-[2-(3,3-difluoroazetidin-1-yl)ethyl]piperidin-3-yl}-6-fluoro-3-(morpholin-4-ylcarbonyl)-1,4-dihydrothiochromeno[4,3-c]pyrazole 5,5-dioxide]
23 | 15 | O=C(c1nn([C@H]2CCCN(CCN3CCCCC3)C2)c2c1CS(=O)(=O)c1ccccc1-2)N1CCOCC1 (stereo in doubt) [Example 465, 3-(morpholin-4-ylcarbonyl)-1-[1-(2-piperidin-1-ylethyl)piperidin-3-yl]-1,4-dihydrothiochromeno[4,3-c]pyrazole 5,5-dioxide]
24 | 85 | O=C(c1nn([C@H]2CCCN(Cc3cccnc3)C2)c2c1CS(=O)(=O)c1ccccc1-2)N1CCOCC1 (stereo in doubt) [Example 466, 3-(morpholin-4-ylcarbonyl)-1-[1-(pyridin-3-ylmethyl)piperidin-3-yl]-1,4-dihydrothiochromeno[4,3-c]pyrazole 5,5-dioxide]
25 | 133 | O=C(c1nn([C@H]2CCCN(c3ccncc3)C2)c2c1CS(=O)(=O)c1ccccc1-2)N1CCOCC1 (stereo in doubt) [Example 468, 3-(morpholin-4-ylcarbonyl)-1-[1-pyridin-4-ylpiperidin-3-yl]-1,4-dihydrothiochromeno[4,3-c]pyrazole 5,5-dioxide]
26 | 49 | Cc1cccc2c1S(=O)(=O)Cc1c(C(=O)N3CCOCC3)nn([C@H]3CCCN(CCN4CCOCC4)C3)c1-2 (stereo in doubt) [Example 471, 6-methyl-3-(morpholin-4-ylcarbonyl)-1-[1-(2-morpholin-4-ylethyl)piperidin-3-yl]-1,4-dihydrothiochromeno[4,3-c]pyrazole 5,5-dioxide]
27 | 45 | O=C(c1nn([C@H]2CCCN(Cc3ccncc3)C2)c2c1CS(=O)(=O)c1ccccc1-2)N1CCOCC1 (stereo in doubt) [Example 473, 3-(morpholin-4-ylcarbonyl)-1-[1-(pyridin-4-ylmethyl)piperidin-3-yl]-1,4-dihydrothiochromeno[4,3-c]pyrazole 5,5-dioxide]
